According to patent US7910617B2 (Sankyo Company, Limited, priority 2004, dated 2011):

Experiments:
[1] = system: Rat Peripheral Blood Lymphocyte Count; test: Measurement of rat peripheral blood lymphocyte count (relative count and ID50) after oral administration; type: in vivo; details: LEW rats; for Lymphocyte Count (Relative Value Based on a value of 100% for Normal Control Group) (%): blood collected 3 hours after administration, dose not given; for ID50 of rat peripheral blood lymphocyte count: dosage giving 50% inhibition rate of lymphocyte count
Protocol: Measurement of Rat Peripheral Blood Lymphocyte Count
• (1) LEW rats (males, age 5 weeks, Japan Charles River) were used in groups of 5 animals per group. • (2) Administration of Compounds
The compounds were suspended in 1% tragacanth liquid (solvent). The suspended compounds were orally administered to the rats using a gastric tube in a dose of 5 mL per kg of body weight. Furthermore, the solvent was administered instead of the suspended compounds to a normal control group. • (3) Measurement of Peripheral Blood Lymphocyte Count
Blood samples were collected from the descending vena cava under ether anesthesia 3 hours after administration of the solvent or suspended compounds, and then transferred to tubes containing EDTA.
The absolute lymphocyte counts were measured for the collected blood samples using a hematology testing device. Lymphocyte count lowering activity of the test compounds was calculated as a relative value (%) based on a value of 100% for the lymphocyte count of the normal control group.
Measurement of ID50 of Rat Peripheral Blood Lymphocyte Count (mg/kg)
Inhibition rate (%) ={1-(lymphocyte count of compound dose group/lymphocyte count of solvent dose group)}×100 The dosage of the compound that yielded a value of 50% for the inhibition rate was calculated as the ID50 value.

[2] = Rat pharmacokinetics (dosage: 1 mg/kg), blood compound concentrations; type: in vivo; details: male, whole blood, po, LEWIS rats, 1 mg/kg directly into the stomach; for AUC(0-t): read-out: AUC (0–24 h); for half-life: read-out: T½ (converted)
Protocol: Rat Pharmacokinetics (dosage: 1 mg/kg)
• (1) LEWIS rats (males, age 6 weeks, Japan Charles River) were used after acclimating for 1 week. 1 to 3 rats were used for each compound. • (2) Administration of Compounds
The compounds were dissolved in an aqueous physiological saline solution containing 4% (w/v) sulfobutyl ether β-cyclodextrin. The rats were administered the dissolved compounds directly into the stomach using a metal gastric tube in a dose of 2 mL per kg of body weight. • (3) Measurement of Blood Compound Concentrations
Blood samples were collected at 0.1 mL/animal/collection from the jugular vein using heparin as anticoagulant under ether anesthesia at predetermined times after administering the compounds. The blood samples were promptly treated with methanol after collection, and were placed in frozen storage until the time of measurement treatment. After treating the resulting blood samples by solid phase extraction, blood compound concentrations were measured with a high-performance liquid chromatograph-quadropole mass spectrometer. Various pharmacokinetic parameters were then calculated using pharmacokinetics analysis software (Winnonlin Professional) from the resulting blood concentrations.

Compound	Lymphocyte Count (Relative Value Based on a value of 100% for Normal Control Group) (%) [1]	ID50 of rat peripheral blood lymphocyte count [1]	Cmax [2]	AUC(0-t) [2]	half-life [2]
COc1ccc(CCCC(=O)c2ccc(CC[C@@](C)(N)CO)n2C)cc1C.Cl [Example 11, (2R)-2-Amino-2-methyl-4-{1-methyl-5-[4-(3-methyl-4-methoxyphenyl)butanoyl]pyrrol-2-yl}butan-1-ol hydrochloride]	11%	0.39 mg/kg	5.38 ng/mL	71.7 ng·h/mL	6.04 h
Cn1c(CC[C@@](C)(N)CO)ccc1C(=O)CCCc1ccccc1 [Comparative Compound 2, reference compound]	31%	0.78 mg/kg			
Cc1ccc(CCCC(=O)c2ccc(CC[C@@](C)(N)CO)n2C)cc1.Cl [Example 1, (2R) -2-Amino-2-methyl-4-{1-methyl-5-[4-(4-methylphenyl)butanoyl]pyrrol-2-yl}butan-1-ol hydrochloride]	8%	0.21 mg/kg	19.4 ng/mL	288 ng·h/mL	15.6 h
CC(N)(CO)CCc1ccc(C(=O)CCCCc2ccccc2)s1 (centres unmarked) [Comparative Compound 1, reference compound]	30%				
Cc1ccc(CCCC(=O)c2ccc(CC[C@@](C)(N)CO)n2C)cc1C.Cl [Example 2]		0.42 mg/kg			
Cc1ccc(CCCC(=O)c2ccc(CC[C@@](C)(N)CO)n2C)cc1C.Cl [Example 2, (2R)-2-Amino-2-methyl-4-{1-methyl-5-[4-(3,4-dimethylphenyl)butanoyl]pyrrol-2-yl}butan-1-ol hydrochloride]			8.4 ng/mL	123 ng·h/mL	8.5 h
